Drawing on ChEMBL document CHEMBL3045427, “Synthesis, anticonvulsant and neurotoxic activity of some new 2,5-disubstituted-1,3,4-oxadiazoles” (Med Chem Res, 2011), this text covers Activity, minimal effective dose and MTC for 10 molecules.

Data set [1] has as its system Mus musculus. Kind of data set: Anticonvulsant activity in Mus musculus albino (mouse) assessed as protection against maximal electroshock-induced seizure at 300 mg/kg, ip after 0.5 hr. It counts as functional, organism-based. Also on record: dose 300 mg/kg.
Data set [2] concerns Mus musculus. Kind of data set: Anticonvulsant activity in Mus musculus albino (mouse) assessed as protection against subcutaneous metrazole-induced seizure at 300 mg/kg, ip after 0.5 hr. It counts as functional, organism-based. The arrangement: dose 300 mg/kg.
The subject of data set [3] is Mus musculus. Kind of data set: Anticonvulsant activity in ip dosed Mus musculus albino (mouse) assessed as protection against maximal electroshock-induced seizure after 4 hr. It counts as functional. Particulars: read-out: MED.
Data set [4] has as its system Mus musculus. Kind of data set: Neurotoxicity in Mus musculus albino (mouse) assessed as minimal motor impairment at 300 mg/kg, ip after 0.5 hr by rotarod test. It counts as toxicity, organism-based. The arrangement: dose 300 mg/kg, route intraperitoneal. Particulars: in vivo. Background: The rotarod test checks motor coordination on a turning rod.
Data set [5] deals with Mus musculus. In words: Neurotoxicity in Mus musculus albino (mouse) assessed as minimal motor impairment at 300 mg/kg, ip after 4 hr by rotarod test. It counts as toxicity, organism-based. Also on record: dose 300 mg/kg, route intraperitoneal. Particulars: in vivo.
Data set [6] relates to Mus musculus. In words: Anticonvulsant activity in Mus musculus albino (mouse) assessed as protection against subcutaneous metrazole-induced seizure at 300 mg/kg, ip after 4 hr. It counts as functional, organism-based. The arrangement: dose 300 mg/kg.
The subject of data set [7] is Mus musculus. Kind of data set: Anticonvulsant activity in Mus musculus albino (mouse) assessed as protection against maximal electroshock-induced seizure at 300 mg/kg, ip after 4 hr. It counts as functional, organism-based. The arrangement: dose 300 mg/kg. A general note: In the maximal electroshock model the usual endpoint is tonic extension of the hind limbs.
Data set [8] relates to Mus musculus. In words: Neurotoxicity in ip dosed Mus musculus albino (mouse) assessed as minimal motor impairment after 0.5 hr by rotarod test. It counts as toxicity, organism-based. The note with it: in vivo.
Data set [9] relates to Mus musculus. Kind of data set: Anticonvulsant activity in ip dosed Mus musculus albino (mouse) assessed as protection against subcutaneous metrazole-induced seizure after 0.5 hr. The note with it: read-out: MED. It counts as functional.
For data set [10], the system named is Mus musculus. In words: Neurotoxicity in ip dosed Mus musculus albino (mouse) assessed as minimal motor impairment after 4 hr by rotarod test. It counts as toxicity, organism-based. The note with it: in vivo.
Data set [11] concerns Mus musculus. In words: Anticonvulsant activity in ip dosed Mus musculus albino (mouse) assessed as protection against subcutaneous metrazole-induced seizure after 4 hr. The note with it: read-out: MED. It counts as functional.
The subject of data set [12] is Mus musculus. In words: Anticonvulsant activity in ip dosed Mus musculus albino (mouse) assessed as protection against maximal electroshock-induced seizure after 0.5 hr. Particulars: read-out: MED. It counts as functional.

The source made the active and inactive calls. The rule behind the calls is not given here.

With `CC(C)=CCC/C(C)=C\C=N/NC(=O)Nc1nnc(-c2ccc(C)cc2)o1`, the outcome in the data set on Mus musculus [1], in the data set on Mus musculus [2] and in the data set with Mus musculus [6] was inactive. In addition, the minimal effective dose in the data set on Mus musculus [3] is 300 mg/kg. In addition, the Activity result in the data set with Mus musculus [4] and in the data set with Mus musculus [5] was “Non-toxic” throughout.

On to `COc1ccc(-c2nnc(NC(=O)N/N=C\C=C(\C)CCC=C(C)C)o2)cc1`, for which the outcome with Mus musculus [1], in the data set on Mus musculus [2] and in the data set with Mus musculus [6] was inactive. In the data set on Mus musculus [3], the minimal effective dose came to 300 mg/kg. Also, the Activity entry in the data set with Mus musculus [4] and with Mus musculus [5] was “Non-toxic” in each case.

For `COc1ccc(-c2nnc(/N=C\C=C(\C)CCC=C(C)C)o2)cc1`, the result in the data set with Mus musculus [1], in the data set on Mus musculus [2], in the data set on Mus musculus [7] and in the data set with Mus musculus [6] was inactive. In addition, the Activity result in the data set with Mus musculus [4] and with Mus musculus [5] was “Non-toxic” throughout.

Take `CC(C)=CCC/C(C)=C\C=N/c1nnc(-c2ccccc2)o1`: the MTC in the data set with Mus musculus [8] and in the data set on Mus musculus [10] was 300 mg/kg each time. In addition, the minimal effective dose was found to be 300 mg/kg in the data set with Mus musculus [9], 300 mg/kg in the data set with Mus musculus [11], 30 mg/kg in the data set on Mus musculus [12] and 100 mg/kg in the data set with Mus musculus [3].

For the molecule `CC(C)=CCC/C(C)=C\C=N/c1nnc(-c2ccc(C)cc2)o1`, the outcome in the data set with Mus musculus [1], in the data set with Mus musculus [2], with Mus musculus [7] and in the data set on Mus musculus [6] was inactive. Further, the Activity result in the data set with Mus musculus [4] and in the data set on Mus musculus [5] was “Non-toxic” in each case.

`CC(C)=CCC/C(C)=C\C=N/NC(=O)Nc1nnc(-c2ccccc2)o1`: the result in the data set with Mus musculus [1], in the data set on Mus musculus [2] and in the data set on Mus musculus [6] was inactive. Besides, the minimal effective dose in the data set on Mus musculus [3] amounted to 300 mg/kg. Besides, the Activity entry with Mus musculus [4] and in the data set with Mus musculus [5] was “Non-toxic” each time.

With `NC(=O)N1c2ccccc2C=Cc2ccccc21` [CARBAMAZEPINE], the MTC with Mus musculus [8] worked out at 100 mg/kg; in the data set on Mus musculus [10], 300 mg/kg. The minimal effective dose in the data set with Mus musculus [9] was 100 mg/kg; with Mus musculus [11], 300 mg/kg; in the data set on Mus musculus [12], 30 mg/kg; in the data set on Mus musculus [3] it was 100 mg/kg.

`CC(C)=CCC/C(C)=C\C=N/NC(=O)Nc1nnc(-c2ccc(Cl)cc2)o1`: the result with Mus musculus [2], in the data set on Mus musculus [7] and with Mus musculus [6] was inactive. Besides, in the data set on Mus musculus [12], the minimal effective dose turned out to be 30 mg/kg. Further, the Activity result in the data set with Mus musculus [4] and in the data set on Mus musculus [5] was “Non-toxic” throughout.

As for `CC(C)=CCC/C(C)=C\C=N/c1nnc(-c2ccc(Cl)cc2)o1`, the outcome with Mus musculus [1] and in the data set on Mus musculus [2] was inactive. In addition, the minimal effective dose in the data set with Mus musculus [11] and in the data set with Mus musculus [3] was 300 mg/kg each time. The Activity entry with Mus musculus [4] and in the data set on Mus musculus [5] was “Non-toxic” throughout.

On to `O=C1NC(=O)C(c2ccccc2)(c2ccccc2)N1` [PHENYTOIN], for which the MTC in the data set with Mus musculus [8] and in the data set on Mus musculus [10] was 100 mg/kg in each case. Moreover, the result with Mus musculus [2] and in the data set on Mus musculus [6] was inactive. In addition, the minimal effective dose with Mus musculus [12] and with Mus musculus [3] was 30 mg/kg throughout.
